Values of other authors, collected in patent publication US4556678A (Key Pharmaceuticals, Inc., priority 1982, dated 1985).

[1] = oral formulations currently in use

CC(C)NCC(O)COc1cccc2ccccc12 (stereo not drawn) [Propranolol, propranolol]
bioavailability (administration with food): enhance its bioavailability
absorption from the gastrointestinal tract [1]: almost completely absorbed
liver metabolism [1]: subject to rapid liver metabolism
